SMILES strings stand for the structures. Entries after “also recorded” stand apart in the source; their conditions may differ. Read-outs that look alike come from different tables or passages of the source.

Data set [1] relates to adult male Wistar rats. As to the kind of experiment: Intravenous cocaine self-administration under a multiple, alternating schedule of food reinforcement and cocaine self-administration. The data set is classed as in vivo, rat.
Method: Adult male Wistar rats were trained under a multiple, alternating schedule of cocaine and food self-administration. This schedule consisted of alternating periods of cocaine access and food reinforcement. In some instances, as described further below, three doses of cocaine (0.125, 0.25, or 0.50 mg/kg/infusion) were tested. Rats were also periodically trained with saline substitution (cocaine extinction) and food extinction during the same session.
More specifically, adult male Wistar rats were implanted with chronic jugular catheters. Following recovery from surgery, the rats were trained to respond under a multiple, alternating schedule of food reinforcement and cocaine self-administration. Food-maintained responding was used to control for the non-specific motor effects of the various treatments. During the food component of the schedule, the stimulus light located above the food response lever was illuminated to indicate the availability of food reinforcement. […] A 25-second timeout followed the delivery of each food pellet. During this timeout, the stimulus light was darkened and responses on the food lever were counted but had no scheduled consequences. Responding on the other (cocaine) lever during the food component also had no scheduled consequences. […] Following 15 minutes of access to food, all stimulus lights in the chamber were darkened for a 1-minute timeout. Following the timeout, the stimulus light above the cocaine response lever was illuminated to indicate the availability of cocaine (0.125, 0.25, or 0.5 mg/kg/infusion). […] A 20-second timeout period followed each infusion. […] After 15 minutes of access to cocaine and a 1-minute timeout, the rats were again allowed 15 minutes access to the food component of the schedule. Access to food and cocaine alternated in this manner every 15 minutes during the two hour behavioral sessions so that each rat was exposed to food and cocaine for four 15-minute periods each. Each behavioral session began with 15 minutes access to either food or cocaine, and this alternated daily. Stable baselines of responding were established when the total number of cocaine and food presentations, as well as the number of presentations during each of the four exposures each session, varied less than 10% for three consecutive sessions. At least three different doses of cocaine (e.g., 0.125, 0.25, and 0.5 mg/kg/infusion) were tested. Rats were first trained to self-administer 0.25 mg/kg/infusion, which was the standard dose of cocaine used. When responding stabilized, the dose was changed to 0.125 or 0.5 mg/kg/infusion as appropriate.
Once stable baselines of responding were obtained, dose-response curves for the various compounds were individually generated for each rat. Rats were treated with each dose at least twice with a minimum of two days of baseline cocaine self-administration interspersed between each test. Each group of rats was tested with only two of the test compounds to minimize potential carryover effects.
Another data set relates to rats. The following applies: pretreatment, literature; cited from earlier work.
For data set [2], the system named is adult male Wistar rats. Put plainly: Cue-induced reinstatement of extinguished cocaine seeking. The class given is in vivo, rat. The following applies: for reinstatement of extinguished cocaine seeking: pretreatment, summary of the studies. An excerpt: Training to self-administer cocaine: In one model, rats were exposed to alternating 15-minute periods of access to cocaine self-administration and food reinforcement. Food was used to control for potential nonspecific, ataxis effects of the drugs and combinations. […] The other preclinical model that has been used is the cue-induced reinstatement of extinguished cocaine seeking model of relapse. In this model, rats are trained to self-administer cocaine and the ability of conditioned cues in the environment to reinstate extinguished responding is assessed and taken as a measure of relapse.
Cue-induced Reinstatement of Extinguished Cocaine Seeking: The experiments described herein were designed to investigate whether or not drug combinations identified as effective in reducing cocaine self-administration would also block the ability of conditioned cues to reinstate extinguished cocaine-seeking behavior. Adult male Wistar rats were implanted with chronic jugular catheters and trained to self-administer cocaine (0.25 mg/kg/infusion) by pressing one of the response levers in the experimental chamber (i.e., the “active” or “cocaine” lever) under a fixed-ratio […] schedule of reinforcement during daily 2-hour sessions conducted 5 days per week. At the start of each session, both levers were extended into the chamber and the stimulus light above the active lever was illuminated to indicate the availability of cocaine. […] A 20-second timeout period followed each infusion. The stimulus light above the active lever and the house light and tone compound stimulus were extinguished during the timeout period, and the light above the active lever was illuminated once the timeout ended. When responding on the active lever varied less than 20% for two consecutive days, the response requirement was increased to FR2. When similar stability was observed under the FR2 schedule or reinforcement, the response requirement was increased to the final ratio of four. The criteria for stable responding under the FR4 schedule of reinforcement was a minimum of 10 days of exposure to this schedule that concluded with at least three consecutive days when responding varied by less than 10%. […] Once stable cocaine self-administration was observed, rats were exposed to extinction; the rats were placed into the behavioral chambers, but responding on the “cocaine” (active) lever produced no programmed consequences. Extinction training continued until responding decreased to less than 20% of baseline self-administration. Then reinstatement testing commended. The rats were placed into the experimental chambers, both response levers were extended into the chamber, and the stimulus light above the “active” lever was illuminated as during self-administration training. […] Responding on the “active” lever during reinstatement testing was taken as, an index of cocaine-seeking behavior. Each experimental group consisted of […].

The nature of data set [3]: Phase I single- and multiple-rising dose study: plasma pharmacokinetics. More on the design: species or system human. The following applies: in vivo; for change of half-lives at different doses or with repeated dosing / Tmax / half-life: human; for half-life: t1/2. An excerpt:
Total daily doses were double these amounts on BID dosing days. Primary outcomes were safety and pharmacokinetics of MET, its active metabolite (metyrapol), and OX. Safety measures included vital signs, ECGs an standard safety labs. Cortisol and other HPA axis parameters were monitored closely throughout the study.
They were not seeking to quit smoking. […] Primary outcomes were safety and pharmacokinetics.

The subject of another data set is smokers. The following applies: smoking cessation therapy; cited from earlier work.
A short description of data set [4]: Pharmacokinetic interaction between cocaine, metyrapone and oxazepam (plasma concentrations, GCMS). The class given is in vivo, rat.
Method: Thirty minutes following the drug combination or vehicle injection, the rats received intravenous injections of cocaine (0.25 mg/kg/infusion) every 2 minutes for 1 hour. After the final injection of cocaine, blood was collected from the catheter for the analysis of cocaine and its metabolites ecgonine methyl ester and benzoylecgonine. […] All drug concentrations were determined using GCMS procedures.
The next data set has as its system male Wistar rats. As to the kind of experiment: Forced Swim Test (FST), animal model of depression.
The mark [5] stands for this setting: high dose, ip pretreatment, drug alone.
Setting [6] is: low, ineffective dose, ip pretreatment, drug alone.
Setting [7] is: pretreatment, summary of the studies.

For `Cc1nnc2n1-c1ccc(Cl)cc1C(c1ccccc1)=NC2` [alprazolam], the cocaine self-administration entry is “reduced cocaine self-administration” in the data set on adult male Wistar rats [1] (setting [5]); “did not significantly affect” in the data set on adult male Wistar rats [1] (setting [6]); “decrease cocaine self-administration” in the data set on adult male Wistar rats [1] (setting [7]); “reduced responding maintained by both food and cocaine” in the data set on rats. Besides, the “reinstatement of extinguished cocaine seeking” value in the data set with adult male Wistar rats [2] is on record as “decrease”.
As to `CCCCN(CC)c1nc(C)nc2c1c(C)cn2-c1c(C)cc(C)cc1C` [CP-154,526], the cocaine self-administration result is “reduced cocaine self-administration” with adult male Wistar rats [1] (setting [5]), “did not significantly affect” in the data set with adult male Wistar rats [1] (setting [6]) and “decrease cocaine self-administration” in the data set on adult male Wistar rats [1] (setting [7]). In the data set on adult male Wistar rats [2], the “reinstatement of extinguished cocaine seeking” value is “decrease”.
By Tmax is commonly meant the time from dosing to the highest level. A word on the half-life: it is the time needed for the level to fall by half in the phase considered. Low readings indicate fast loss, high ones slow loss. Turning to `CC(C)(c1cccnc1)C(O)c1cccnc1` (centres unmarked) [metyrapol], in data set [3], the “change of half-lives at different doses or with repeated dosing” value is recorded as “did not change substantially” and the half-life is 8.41 h. In addition, the Tmax in data set [3] (Tmax) stood at 2 h.
Consider `O=C1Nc2ccc(Cl)cc2C(c2ccccc2)=NC1O` (centres unmarked) [oxazepam], for which the Tmax was found to be 3.5 h in data set [3] (human plasma, 270 mg Metyrapone/12 mg Oxazepam, Day 1, median, n 6, read-out: Tmax); 3 h in data set [3] (human plasma, 270 mg Metyrapone/12 mg Oxazepam, Day 10, median, n 6, read-out: Tmax); 3 h in data set [3] (human plasma, 540 mg Metyrapone/24 mg Oxazepam, Day 1, median, n 6, read-out: Tmax); 3 h in data set [3] (human plasma, 540 mg Metyrapone/24 mg Oxazepam, Day 10, median, n 6, read-out: Tmax); 4 h in data set [3] (human plasma, 720 mg Metyrapone/24 mg Oxazepam, Day 1, median, n 6, read-out: Tmax); 3 h in data set [3] (human plasma, 720 mg Metyrapone/24 mg Oxazepam, Day 10, median, n 6, read-out: Tmax).
With `CC(NC(C)(C)C)C(=O)c1cccc(Cl)c1` (centres unmarked) [bupropion], in the data set with smokers, the “one year quit rate” value is reported as 15.5%.
As to `COC(=O)[C@H]1[C@@H](OC(=O)c2ccccc2)C[C@@H]2CC[C@H]1N2C` [cocaine], in data set [4] (rats, presence of cocaine), the “effect on plasma concentrations of metyrapone or oxazepam” value is on record as “did not affect the plasma concentrations of metyrapone or oxazepam”.
As for `c1cnc2cc3c(cc2n1)[C@@H]1CNC[C@H]3C1` [varenicline], the “one year quit rate” value with smokers is 22.5%.
For the compound `NCc1cc(=O)[nH]o1` [muscimol], the cocaine self-administration result with adult male Wistar rats [1] (setting [5]) is reported as “reduced cocaine self-administration”; in the data set with adult male Wistar rats [1] (setting [6]), “did not significantly affect”.
Turning to `CC(=O)N1CCN(c2ccc(OCC3COC(Cn4ccnc4)(c4ccc(Cl)cc4Cl)O3)cc2)CC1` (centres unmarked) [ketoconazole], the cocaine self-administration result in the data set on adult male Wistar rats [1] (setting [6]) is given as “no effect; also recorded: did not significantly affect”; with adult male Wistar rats [1] (setting [7]), “decrease cocaine self-administration”; with rats, “reduced cocaine self-administration”. For the same compound, in the data set on adult male Wistar rats [1] (rats), the “minimally effective dose that reduced cocaine self-administration by at least 50% without affecting food-maintained responding” value stood at 25 mg/kg. In addition, in the data set on adult male Wistar rats [2], the “reinstatement of extinguished cocaine seeking” value is on record as “decrease”.
On to `CC(C)(C(=O)c1cccnc1)c1cccnc1` [metyrapone], for which, in data set [3], the “change of half-lives at different doses or with repeated dosing” value is “did not change substantially”. Moreover, the Tmax in data set [3] (Tmax) is 1.5 h. The compound further showed a half-life in data set [3] of 2.04 h. For the same compound, in data set [3], the “accumulation with repeated dosing” value is “Modest accumulation”. Further, the immobility time result with male Wistar rats (chronic, individual drug, Met50 group) is “showed a lessening of immobility time”. In the data set with male Wistar rats (chronically treated groups, drug alone), the “group means of immobility versus vehicle (tolerance)” value is reported as “equal to or exceeded the vehicle”. Besides, the cocaine self-administration result in the data set with adult male Wistar rats [1] (setting [5]) is on record as “reduced cocaine self-administration”; in the data set with adult male Wistar rats [1] (setting [6]), “did not significantly affect”; with adult male Wistar rats [1] (setting [7]) it was “decrease cocaine self-administration”; in the data set with rats, “significant dose-related decreases”. Also, the “cue-induced reinstatement of extinguished cocaine seeking” value with adult male Wistar rats [2] (chronic, 50 mg/kg, ip, once per day for 14 days) is “reduced cocaine seeking to levels seen when only saline was delivered”. Besides, in the data set with adult male Wistar rats [2], the “reinstatement of extinguished cocaine seeking” value is “decrease”. For the same compound, the “influence on plasma concentrations of each other” value in data set [4] (rat, in vivo, ip) is “did not influence plasma concentrations of each other”.
